Here are results for 31 molecules from patent US20240246946A1, “MODULATORS OF TREX1” (Constellation Pharmaceuticals, Inc., priority 2021, published 2024).

Where two headings read alike, the source gives them in different places.

Test [1] concerns the target T1, full length human TREX1 (Homo sapiens, UniProt Q9NSU2).
T1 construct: N-terminally His-Tev tagged full length human TREX1; made in house; host or cells: E. coli
T1 sequence (Q9NSU2 1-314): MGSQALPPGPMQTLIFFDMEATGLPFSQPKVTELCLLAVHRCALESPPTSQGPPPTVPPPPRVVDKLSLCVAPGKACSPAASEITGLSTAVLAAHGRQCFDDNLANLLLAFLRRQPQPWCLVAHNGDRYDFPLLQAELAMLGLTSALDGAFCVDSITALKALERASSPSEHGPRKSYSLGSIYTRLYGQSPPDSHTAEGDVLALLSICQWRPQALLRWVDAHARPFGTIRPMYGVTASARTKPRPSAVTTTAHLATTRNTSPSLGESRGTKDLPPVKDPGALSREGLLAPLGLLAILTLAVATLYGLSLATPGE
The test can be described thus: hTREX1 Biochemical Assay (fluorescence, dsDNA substrate degradation). Here is the method: (§1) Degradation of the dsDNA liberates free fluorophore to produce a fluorescent signal. Specifically, 7.5 μL of N-terminally His-Tev tagged full length human TREX1 (expressed in E. coli and purified in house) in reaction buffer (50 mM Tris, 150 mM NaCl, 2 mM DTT, 0.1 mg/mL BSA, 0.01% (w/v) Tween-20, 5 mM MgCl2, pH 7.4) was added to a 384-well Black ProxiPlate Plus (PerkinElmer) which already contained compound (150 nL) at varying concentrations as a 10 point dose-response in DMSO. The plate was incubated at 25° C. for 4 hours. Reactions were initiated by adding 7.5 μL of dsDNA substrate (Strand A: 5′ TEX615/GCT AGG CAG 3′; Strand B: 5′ CTG CCT AGC/IAbRQSp (Integrated DNA Technologies)) in reaction buffer. Final concentrations were 4 pM TREX1, 60 nM dsDNA substrate in reaction buffer with 1.0% DMSO (v/v). After 18 hours at 25° C., reactions were quenched by the addition of 2 μL of 500 mM EDTA.

The target in test [2] is T2, full length mouse TREX1 (Mus musculus, UniProt Q91XB0).
T2 construct: N-terminally His-Tev tagged full length mouse TREX1; made in house; host or cells: E. coli
T2 sequence (Q91XB0 1-314): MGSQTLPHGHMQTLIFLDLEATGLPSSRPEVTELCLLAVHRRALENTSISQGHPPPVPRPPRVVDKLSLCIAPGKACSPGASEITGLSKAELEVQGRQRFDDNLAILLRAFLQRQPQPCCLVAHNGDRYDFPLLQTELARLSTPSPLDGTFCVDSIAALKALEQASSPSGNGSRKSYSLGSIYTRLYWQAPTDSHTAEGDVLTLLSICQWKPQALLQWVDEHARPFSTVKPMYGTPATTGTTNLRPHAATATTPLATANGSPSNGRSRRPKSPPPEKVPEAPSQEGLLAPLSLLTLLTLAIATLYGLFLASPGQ
The test can be described thus: mTREX1 Biochemical Assay (fluorescence, dsDNA substrate degradation). Here is the method: as §1, with “length mouse” for “length human”, “were 6” for “were 4”

Where [3] appears, read: biochemical, read-out: hTREX1 IC50.
Where [4] appears, read: biochemical, read-out: mTREX1 IC50.

Consider `Cc1nn(C)cc1C(c1ccccc1C#N)C(c1nc(C(=O)Nc2cnoc2)c(O)c(=O)n1C)C(F)(F)F` (single isomer, unassigned) [Example 41 D2E2], for which the IC50 in test [1] (setting [3]) and in test [2] (setting [4]) was more than 0.01 µM in each case.
`COCCn1cc(C(c2ccccc2C#N)C(C)c2nc(C(=O)Nc3cnoc3)c(O)c(=O)n2C)c(C)n1` (single isomer, unassigned) [Example 71 D2E2]: the IC50 in test [1] (setting [3]) and in test [2] (setting [4]) was more than 0.01 µM in each case.
Take `Cc1cc(C(c2ccccc2C#N)C(C)c2nc(C(=O)Nc3cnoc3)c(O)c(=O)n2C)n(C)n1` (single isomer, unassigned) [Example 63 D2E1]: the IC50 in test [1] (setting [3]) and in test [2] (setting [4]) was more than 0.01 µM in each case.
For the molecule `CCn1cc(C(c2ccccc2C#N)C(C)c2nc(C(=O)Nc3cnoc3)c(O)c(=O)n2C)cn1` (single isomer, unassigned) [Example 13 D2E2], the IC50 in test [1] (setting [3]) and in test [2] (setting [4]) was more than 0.01 µM each time.
In the case of `Cc1nn(C)cc1C(c1ccccc1C#N)C(c1nc(C(=O)Nc2cnoc2)c(O)c(=O)n1C)C(F)(F)F` (single isomer, unassigned) [Example 41 D2E1], the results for the IC50 in test [1] (setting [3]) and in test [2] (setting [4]) were 0.001 to 0.01 µM and more than 0.01 µM, respectively.
On the same counts, the results for `CC(c1nc(C(=O)Nc2cnoc2)c(O)c(=O)n1C)C(c1cnn(CCO)c1)c1ccccc1C#N` (single isomer, unassigned) [Example 35 D2E2] are more than 0.01 µM and more than 0.01 µM.
With `CC(c1nc(C(=O)Nc2cnoc2)c(O)c(=O)n1C)C(c1cnn(CCO)c1)c1ccccc1C#N` (single isomer, unassigned) [Example 35 D1E2], the IC50 in test [1] (setting [3]) and in test [2] (setting [4]) was more than 0.01 µM throughout.
Turning to `COC(C)(C)Cn1cc(C(c2ccccc2C#N)C(C)c2nc(C(=O)Nc3cnoc3)c(O)c(=O)n2C)cn1` (single isomer, unassigned) [Example 37 D1E2], the IC50 in test [1] (setting [3]) and in test [2] (setting [4]) was more than 0.01 µM in each case.
With `CC(c1nc(C(=O)Nc2cnoc2)c(O)c(=O)n1C)C(c1cnn(C)c1)c1cc(Cl)ccc1C#N` (single isomer, unassigned) [Example 26 D2E2], the IC50 in test [1] (setting [3]) and in test [2] (setting [4]) was more than 0.01 µM in each case.
As to `CC(c1nc(C(=O)Nc2cnoc2)c(O)c(=O)n1C)C(c1cnn(CC2CC2)c1)c1ccccc1C#N` (single isomer, unassigned) [Example 23 D2E1], the IC50 in test [1] (setting [3]) and in test [2] (setting [4]) was more than 0.01 µM in each case.
Regarding `COCCn1cc(C(c2ccccc2C#N)C(C)c2nc(C(=O)Nc3cnoc3)c(O)c(=O)n2C)c(C)n1` (single isomer, unassigned) [Example 71 D1E2], the half-inhibitory concentration (IC50) in test [1] (setting [3]) and in test [2] (setting [4]) was more than 0.01 µM throughout.
Turning to `Cc1cnn(C)c1C(c1ccccc1C#N)C(C)c1nc(C(=O)Nc2cnoc2)c(O)c(=O)n1C` (single isomer, unassigned) [Example 84 D1E2], the IC50 in test [1] (setting [3]) and in test [2] (setting [4]) was more than 0.01 µM in each case.
`Cc1nn(C)cc1C(c1cc(F)ccc1C#N)C(c1nc(C(=O)Nc2cnoc2)c(O)c(=O)n1C)C(F)(F)F` (single isomer, unassigned) [Example 42 D2E2]: the IC50 in test [1] (setting [3]) and in test [2] (setting [4]) was more than 0.01 µM each time.
Regarding `CC(c1nc(C(=O)Nc2cnoc2)c(O)c(=O)n1C)C(c1cnn(C)c1)c1ccncc1C#N` (single isomer, unassigned) [Example 8 D1E1], the half-inhibitory concentration (IC50) in test [1] (setting [3]) and in test [2] (setting [4]) was more than 0.01 µM in each case.
Take `COCCCn1cc(C(c2ccccc2C#N)C(C)c2nc(C(=O)Nc3cnoc3)c(O)c(=O)n2C)cn1` (single isomer, unassigned) [Example 24 D2E2]: the concentration for half-maximal inhibition (IC50) in test [1] (setting [3]) and in test [2] (setting [4]) was more than 0.01 µM each time.
In the case of `Cc1ccnn1C(c1ccccc1Cl)C(C)c1nc(C(=O)Nc2cnoc2)c(O)c(=O)n1C` (single isomer, unassigned) [Example 54 D1E2], the 50% inhibitory concentration (IC50) in test [1] (hTREX1 IC50, biochemical) was more than 0.01 µM; in test [2] (mTREX1 IC50, biochemical), more than 0.01 µM.
Consider `CC(c1nc(C(=O)Nc2cnoc2)c(O)c(=O)n1C)C(c1cnccn1)c1ccccc1C#N` (single isomer, unassigned) [Example 66 D2E2], for which the IC50 in test [1] (setting [3]) and in test [2] (setting [4]) was more than 0.01 µM in each case.
Regarding `CC(c1nc(C(=O)Nc2cnoc2)c(O)c(=O)n1C)C(c1cnn(C)c1)c1cccnc1C#N` (single isomer, unassigned) [Example 7 D1E2], the 50% inhibitory concentration (IC50) in test [1] (setting [3]) and in test [2] (setting [4]) was more than 0.01 µM in each case.
With `CC(c1nc(C(=O)Nc2cnoc2)c(O)c(=O)n1C)C(c1cnn(C)c1)c1ccc(F)cc1C#N` (single isomer, unassigned) [Example 15 D2E2], the 50% inhibitory concentration (IC50) in test [1] (setting [3]) and in test [2] (setting [4]) was more than 0.01 µM in each case.
For `Cc1cc(C(c2ccccc2C#N)C(C)c2nc(C(=O)Nc3cnoc3)c(O)c(=O)n2C)ccn1` (single isomer, unassigned) [Example 6 D2E1], the 50% inhibitory concentration (IC50) in test [1] (setting [3]) and in test [2] (setting [4]) was more than 0.01 µM in each case.
With `COCCn1cc(C(c2cc(F)c(F)cc2Cl)C(C)c2nc(C(=O)Nc3cnoc3)c(O)c(=O)n2C)cn1` (single isomer, unassigned) [Example 73 D2E2], the IC50 in test [1] (setting [3]) and in test [2] (setting [4]) was more than 0.01 µM throughout.
Turning to `Cc1nn(C)cc1C(c1ccc(F)cc1C#N)C(C)c1nc(C(=O)Nc2cnoc2)c(O)c(=O)n1C` (single isomer, unassigned) [Example 56 D2E2], the 50% inhibitory concentration (IC50) in test [1] (setting [3]) and in test [2] (setting [4]) was more than 0.01 µM each time.
For the molecule `CC(c1nc(C(=O)Nc2cnoc2)c(O)c(=O)n1C)C(c1cn(C)cn1)c1ccccc1C#N` (single isomer, unassigned) [Example 39 D1E1], the half-maximal inhibitory concentration (IC50) in test [1] (setting [3]) and in test [2] (setting [4]) was more than 0.01 µM each time.
On to `CC(c1nc(C(=O)Nc2cnoc2)c(O)c(=O)n1C)C(c1ncn(C)n1)c1ccccc1C#N` (single isomer, unassigned) [Example 51 D2E1], for which the concentration for half-maximal inhibition (IC50) in test [1] (setting [3]) and in test [2] (setting [4]) was more than 0.01 µM in each case.
Regarding `CCn1cc(C(c2cc(F)ccc2C#N)C(C)c2nc(C(=O)Nc3cnoc3)c(O)c(=O)n2C)cn1` (single isomer, unassigned) [Example 17 D1E1], the IC50 in test [1] (setting [3]) and in test [2] (setting [4]) was more than 0.01 µM each time.
For `CC(c1nc(C(=O)Nc2cnoc2)c(O)c(=O)n1C)C(c1cnn(CCCN(C)C)c1)c1ccccc1C#N` (single isomer, unassigned) [Example 34 D1E2], the IC50 in test [1] (setting [3]) and in test [2] (setting [4]) was more than 0.01 µM in each case.
Consider `CCn1cc(C(c2ccc(F)cc2C#N)C(C)c2nc(C(=O)Nc3cnoc3)c(O)c(=O)n2C)c(C)n1` (single isomer, unassigned) [Example 55 D1E2], for which the half-inhibitory concentration (IC50) in test [1] (setting [3]) and in test [2] (setting [4]) was more than 0.01 µM each time.
For `COCCn1cc(C(c2cc(F)c(F)cc2Cl)C(C)c2nc(C(=O)Nc3cnoc3)c(O)c(=O)n2C)cn1` (single isomer, unassigned) [Example 73 D2E1], the IC50 in test [1] (setting [3]) and in test [2] (setting [4]) was more than 0.01 µM throughout.
`Cc1cncc(C(c2ccccc2C#N)C(C)c2nc(C(=O)Nc3cnoc3)c(O)c(=O)n2C)n1` (single isomer, unassigned) [Example 53 D1E1]: the IC50 in test [1] (setting [3]) and in test [2] (setting [4]) was more than 0.01 µM in each case.
Take `Cc1cc(C(c2ccccc2C#N)C(C)c2nc(C(=O)Nc3cnoc3)c(O)c(=O)n2C)n(C)n1` (single isomer, unassigned) [Example 63 D2E2]: the half-inhibitory concentration (IC50) in test [1] (setting [3]) and in test [2] (setting [4]) was more than 0.01 µM in each case.
Regarding `CC(c1nc(C(=O)Nc2cnoc2)c(O)c(=O)n1C)C(c1cocn1)c1ccccc1C#N` (single isomer, unassigned) [Example 50 D2E2], the IC50 in test [1] (setting [3]) and in test [2] (setting [4]) was more than 0.01 µM throughout.

As usually defined, the IC50 is the concentration that inhibits the measured activity by half.
